Square brackets hold non-standard residues; d marks the D form. Peptide text beside a SMILES is read from it. * marks the point of attachment. Phe(F5) = N[C@@H](Cc1c(F)c(F)c(F)c(F)c1F)C(=O)O; Phe(4-Cl) = N[C@@H](Cc1ccc(Cl)cc1)C(=O)O; hArg = N=C(N)NCCCC[C@H](N)C(=O)O; 12Ado = NCCCCCCCCCCCC(=O)O; Nle = CCCC[C@H](N)C(=O)O; Orn = NCCC[C@H](N)C(=O)O; Abu = CC[C@H](N)C(=O)O; PhAc = O=C(Cc1ccccc1)*
What was measured:
[1] = system: Alzheimer's disease related genes; test: Mouse Alzheimer's Disease real-time quantitative PCR array on brain samples of 5XFAD mice; format: in vivo; conditions: brain of 5XFAD mice, 10 μg daily for six months
Description: Total RNA was isolated and DNAse treated from representative hemispheria using NucleoSpin kit according to the manufacturer's instructions (Macherey-Nagel Inc., Bethlehem, Pa.). Five samples each from the control and the 10 μg MIA-690 group were analyzed. The yield and the quality of RNA samples were determined spectrophotometrically using 260 nm, and 260/280 and 260/230 nm ratio. The synthesis of cDNA was performed as follows. Briefly, 1 μg of RNA from each sample was reverse-transcribed into cDNA by RT First Strand kit (Qiagen). Reverse transcription was done in a Veriti 96-well thermal cycler (Applied Biosystems). The Mouse Alzheimer's Disease real-time quantitative PCR array (PAMM-057Z Qiagen) used in the study contains 84 unique genes related to Alzheimer's disease. All PCR arrays were performed using iQ5 Multicolor Real-Time Detections System (Bio-Rad). […] Data analysis of gene expression was performed using Excel based PCR Array Data Analysis Software provided by the manufacturer (Qiagen): fold-changes in gene expression were calculated using the ΔΔCt method and five stably expressed housekeeping genes (Act b, B2m, GAPDH, Gus b, Hsp 90 ab1) were used for normalization of the results.

HCN-2 cells = test: Cell viability assay, HCN-2 cells treated with amyloid-β1-42 (MTT), Example 5; format: cell-based; conditions: 10 μM amyloid-β1-42; peptide 10 nM, 100 nM, 1 μM; four days of exposure; FIG. 7
Description: Differentiated HCN-2A neuronal cells were treated with 10 μM amyloid-β1-42 alone and in combination with 10 nM, 100 nM and 1 μM of MIA-602, MIA-606 and MIA 640. After the treatment, the cell viability was determinate as indicated by the supplier using the Promega Cell Titer 96® Aqueous Non-Radioactive Cell Proliferation Assay. The absorbance level was determined at 490 nm. Data are percentage of control (n=3).
HCN-2 cells (American Type Culture Collection, Manassas, Va., USA) were cultured in DMEM medium (supplemented with 10% Fetal Bovine Serum (FBS) and 0.1% penicillin/streptomycin) at 37° C. and in an atmosphere of air and 5% CO2. Cell were directly plated into 96-well micro plates at 5,000 cells/cm^2. After 7 days, to allow cell number duplication (up to 70-80% confluence), the differentiation of HCN-2 cells was induced by adding fresh medium containing 25 ng/ml NGF, 0.5 mM dibutyryl cAMP and 0.5 mM isobutylmethylxanthine (IBMX) (all from Sigma-Aldrich, St. Louis, Mo.) for a week. Then, human amyloid-β1-42 (Sunnyvale, Calif.) stock solution (10 mM) was prepared in TRIS and then immediately diluted to appropriate concentrations in the assay medium. The medium used for neurotoxicity assay was N2-supplemented DMEMF12 (Gibco BRL, NY) with 2% FBS. The treatment groups were control, amyloid-β1-42, and the combination treatments with amyloid-β1-42 and 3 doses (10 nM, 100 nM and 1 μM) of the analogs (MIA-602, MIA-606 and MIA-640). The effect of the analogs on cell viability was evaluated after four days of exposure by using the 3-(4,5-Dimethylthiazol-2-yl)-2,5-diphenyltetrazolium bromide (MTT) assay (Cell Titer 96® Non-Radioactive Cell Proliferation Assay, Promega, Madison, Wis.), according to the manufacturer's instructions.

## CCCC[C@H](NC(=O)[C@@H](NC(=O)[C@H](CC(=O)O)NC(=O)[C@H](CCC(N)=O)NC(=O)[C@H](CC(C)C)NC(=O)[C@H](CC(C)C)NC(=O)[C@H](CCCN)NC(=O)[C@H](Cc1c[nH]cn1)NC(=O)[C@H](C)NC(=O)[C@H](CO)NC(=O)[C@H](CC(C)C)NC(=O)[C@H](CCC(N)=O)NC(=O)[C@H](CC)NC(=O)[C@H](CC(C)C)NC(=O)[C@@H](NC(=O)[C@H](CCCN)NC(=O)[C@H](Cc1c[nH]cn1)NC(=O)[C@H](Cc1c(F)c(F)c(F)c(F)c1F)NC(=O)[C@H](CCCCNC(=N)N)NC(=O)[C@H](C)NC(=O)[C@@H](NC(=O)[C@H](Cc1ccc(Cl)cc1)NC(=O)[C@@H](NC(=O)[C@H](C)NC(=O)[C@H](CC(=O)O)NC(=O)[C@@H](CCCNC(=N)N)NC(=O)[C@H](Cc1ccc(O)cc1)NC(=O)CCCCCCCCCCCNC(=O)Cc1ccccc1)[C@@H](C)CC)[C@@H](C)O)C(C)C)[C@@H](C)CC)C(=O)N[C@H](CCCNC(=N)N)C(=O)N[C@@H](CCCCNC(=N)N)C(N)=O [MIA-690, Phac-Ada-Tyr^1-D-Arg^2-Asp^3-Ala^4-Ile^5-Cpa^6-Thr^7-Ala^8-Har^9-Fpa5^10-His^11-Orn^12-Val^13-Leu^14-Abu^15-Gln^16-Leu^17-Ser^18-Ala^19-His^20-Orn^21-Leu^22-Leu^23-Gln^24-Asp^25-Ile^26-Nle^27-D-Arg^28-Har^29-NH2] ({PhAc-12Ado}-Y[dR]DAI[Phe(4-Cl)]TA[hArg][Phe(F5)]H[Orn]VL[Abu]QLSAH[Orn]LLQDI[Nle][dR][hArg]-NH2)
[1]
  Fold change vs. controls: amyloid-β (A4) precursor protein binding family A, member 2: −2.94 fold
  Fold change vs. controls: amyloid-β (A4) precursor protein binding family B, member 3: −2.04 fold

## Phac-Ada-Tyr^1-D-Arg^2-Asp^3-Ala^4-Ile^5-Cpa^6-Thr^7-Ala^8-Har^9-Fpa5^10-His^11-Orn^12-Val^13-Leu^14-Abu^15-Gln^16-Glu^17-Ser^18-Ala^19-His^20-Orn^21-Leu^22-Leu^23-Gln^24-Asp^25-Ile^26-Nle^27-D-Arg^28-Har^29-Ada-NH2 [MIA-640]
HCN-2 cells
  viability of neurons (HCN-2) under amyloid-β1-42 co-treatment: attenuated the toxic impact of co-treatment with amyloid-β1-42 on the viability of neurons

## Phac-Ada-Tyr^1-D-Arg^2-Asp^3-Ala^4-Ile^5-Phe(F)5^6-Thr^7-Ala^8-Har^9-Tyr(Me)^10-His^11-Orn^12-Val^13-Leu^14-Abu^15-Gln^16-Leu^17-Ser^18-Ala^19-His^20-Orn^21-Leu^22-Leu^23-Gln^24-Asp^25-Ile^26-Nle^27-D-Arg^28-Har^29-NH2 [MIA-602]
HCN-2 cells
  viability of neurons (HCN-2) under amyloid-β1-42 co-treatment: attenuated the toxic impact of co-treatment with amyloid-β1-42 on the viability of neurons

## Phac-Ada-Tyr^1-D-Arg^2-Asp^3-Ala^4-Ile^5-Phe(F)5^6-Thr^7-Me-Ala^8-Har^9-Tyr(Me)^10-His^11-Orn^12-Val^13-Leu^14-Abu^15-Gln^16-Leu^17-Ser^18-Ala^19-His^20-Orn^21-Leu^22-Leu^23-Gln^24-Asp^25-Ile^26-Nle^27-D-Arg^28-Har^29-Agm-NH2 [MIA-606]
HCN-2 cells
  viability of neurons (HCN-2) under amyloid-β1-42 co-treatment: attenuated the toxic impact of co-treatment with amyloid-β1-42 on the viability of neurons
